The term IC50 denotes the concentration that inhibits the measured activity by half. Usually inhibition stands for the change of the read-out against control, counted positive when it falls.

The values below come from ChEMBL document CHEMBL1156855, “Identification of potent and selective VEGFR receptor tyrosine kinase inhibitors having new amide isostere headgroups” (Bioorg Med Chem Lett, 2010).

For assay [1], the target named is T1, Hepatocyte growth factor receptor (Homo sapiens, UniProt P08581). Kind of assay: Inhibition of recombinant GST-fused c-Met expressed in baculovirus infected high five cells by DELFIA.
The target in assay [2] is Vascular endothelial growth factor receptor 2 (Homo sapiens, UniProt P35968). Kind of assay: Inhibition of recombinant GST-fused VEGFR2 expressed in baculovirus infected Sf9 cells by DELFIA.
Assay [3] has as its target T1, Hepatocyte growth factor receptor. Kind of assay: Inhibition of TPR-fused Met autophosphorylation expressed in HEK293T cells after 150 mins by ELISA. Particulars: hek-293t. Type of assay: cell-based. On the technique in general: In an ELISA, binding on a coated surface is turned into a signal by an enzyme label.
The test system of assay [4] is HUVEC. Kind of assay: Antiangiogenic activity in HUVEC assessed as inhibition of tubule branching. In kind it is functional, cell-based. The note with it: Homo sapiens.
In assay [5] the target is Receptor-type tyrosine-protein kinase FLT3 (Homo sapiens) (UniProt P36888). Kind of assay: Inhibition of human Flt3.
Assay [6] addresses T1, Hepatocyte growth factor receptor. Kind of assay: Inhibition of human c-MET.
Assay [7] relates to HUVEC. Kind of assay: Antiangiogenic activity in HUVEC assessed as inhibition of VEGF-induced tubule branching at 100 nM. Type of assay: functional. The note with it: Homo sapiens.
The test system of assay [8] is HUVEC. Kind of assay: Antiangiogenic activity in HUVEC assessed as inhibition of VEGF-induced tubule growth at 100 nM. Type of assay: functional. Particulars: Homo sapiens.
In assay [9] the target is Macrophage-stimulating protein receptor (Homo sapiens) (UniProt Q04912). Kind of assay: Inhibition of human RON.
Assay [10] addresses Aurora kinase A (Homo sapiens) (UniProt O14965). Kind of assay: Inhibition of human Aurora A.
Assay [11] has as its target Angiopoietin-1 receptor (Homo sapiens) (UniProt Q02763). Kind of assay: Inhibition of human Tie2.
Assay [12] addresses Vascular endothelial growth factor receptor 1 (Homo sapiens) (UniProt P17948). Kind of assay: Inhibition of human VEGFR1.
Assay [13] concerns HUVEC. Kind of assay: Inhibition of VEGF-induced HUVEC proliferation. In kind it is functional, cell-based. The note with it: Homo sapiens.
Assay [14] relates to HUVEC. Kind of assay: Antiangiogenic activity in HUVEC assessed as inhibition of tubule length. The note with it: Homo sapiens. In kind it is functional, cell-based.
Assay [15] concerns the target Vascular endothelial growth factor receptor 3 (Homo sapiens) (UniProt P35916). Kind of assay: Inhibition of human VEGFR3.
Assay [16] has as its target Focal adhesion kinase 1 (Homo sapiens) (UniProt Q05397). Particulars: 0.1 uM.
Description: Inhibition of human FAK at 0.1 uM
Assay [17] has as its target Mast/stem cell growth factor receptor Kit (Homo sapiens) (UniProt P10721). Particulars: 0.1 uM.
Description: Inhibition of human c-Kit at 0.1 uM
The target of assay [18] is Serine/threonine-protein kinase Chk1 (Homo sapiens) (UniProt O14757). The note with it: 0.1 uM.
Description: Inhibition of human CHK1 at 0.1 uM
For assay [19], the target named is Proto-oncogene tyrosine-protein kinase receptor Ret (Homo sapiens) (UniProt P07949). The note with it: 0.1 uM.
Description: Inhibition of human Ret at 0.1 uM
Assay [20] addresses RAF proto-oncogene serine/threonine-protein kinase (Homo sapiens) (UniProt P04049). The note with it: 0.1 uM.
Description: Inhibition of human c-Raf at 0.1 uM
For assay [21], the target named is Vascular endothelial growth factor receptor 3 (Homo sapiens) (UniProt P35916). Kind of assay: Inhibition of human VEGFR3 at 0.1 uM.
Assay [22] has as its target High affinity nerve growth factor receptor (Homo sapiens) (UniProt P04629). Particulars: 0.1 uM.
Description: Inhibition of human TrkA at 0.1 uM
The target in assay [23] is Serine/threonine-protein kinase haspin (Homo sapiens) (UniProt Q8TF76). The note with it: 0.1 uM.
Description: Inhibition of human haspin at 0.1 uM
Assay [24] deals with Serine/threonine-protein kinase pim-1 (Homo sapiens) (UniProt P11309). Particulars: 0.1 uM.
Description: Inhibition of human Pim1 at 0.1 uM
For assay [25], the target named is Phosphatidylinositol 4,5-bisphosphate 3-kinase catalytic subunit beta isoform (Homo sapiens) (UniProt P42338). Particulars: 0.1 uM.
Description: Inhibition of human PI3Kbeta at 0.1 uM
The target in assay [26] is RAC-alpha serine/threonine-protein kinase (Homo sapiens) (UniProt P31749). Particulars: 0.1 uM.
Description: Inhibition of human PKBalpha at 0.1 uM
The target in assay [27] is Tyrosine-protein kinase JAK2 (Homo sapiens) (UniProt O60674). The note with it: 0.1 uM.
Description: Inhibition of human JAK2 at 0.1 uM
Assay [28] deals with LIM domain kinase 1 (Homo sapiens) (UniProt P53667). Particulars: 0.1 uM.
Description: Inhibition of human LIMK1 at 0.1 uM
The target of assay [29] is Macrophage-stimulating protein receptor (Homo sapiens) (UniProt Q04912). The note with it: 0.1 uM.
Description: Inhibition of human RON at 0.1 uM
In assay [30] the target is Tyrosine-protein kinase JAK3 (Homo sapiens) (UniProt P52333). The note with it: 0.1 uM.
Description: Inhibition of human JAK3 at 0.1 uM
Assay [31] deals with T1, Hepatocyte growth factor receptor. The note with it: 0.1 uM.
Description: Inhibition of human c-MET at 0.1 uM
For assay [32], the target named is 3-phosphoinositide-dependent protein kinase 1 (Homo sapiens) (UniProt O15530). The note with it: 0.1 uM.
Description: Inhibition of human PDK1 at 0.1 uM
The target in assay [33] is Inhibitor of nuclear factor kappa-B kinase subunit beta (Homo sapiens) (UniProt O14920). Particulars: 0.1 uM.
Description: Inhibition of human IKK-beta at 0.1 uM
Assay [34] has as its target Dual specificity mitogen-activated protein kinase kinase 1 (Homo sapiens) (UniProt Q02750). The note with it: 0.1 uM.
Description: Inhibition of human MEK1 at 0.1 uM
The target in assay [35] is ALK tyrosine kinase receptor (Homo sapiens) (UniProt Q9UM73). Particulars: 0.1 uM.
Description: Inhibition of human ALK at 0.1 uM
Assay [36] has as its target Vascular endothelial growth factor receptor 1 (Homo sapiens) (UniProt P17948). Kind of assay: Inhibition of human VEGFR1 at 0.1 uM.
Assay [37] concerns the target Angiopoietin-1 receptor (Homo sapiens) (UniProt Q02763). Particulars: 0.1 uM.
Description: Inhibition of human Tie2 at 0.1 uM
Assay [38] has as its target Receptor-type tyrosine-protein kinase FLT3 (Homo sapiens) (UniProt P36888). Particulars: 0.1 uM.
Description: Inhibition of human Flt3 at 0.1 uM
Assay [39] deals with Glycogen synthase kinase-3 beta (Homo sapiens) (UniProt P49841). Particulars: 0.1 uM.
Description: Inhibition of human GSK3-beta at 0.1 uM
The target in assay [40] is Ephrin type-B receptor 4 (Homo sapiens) (UniProt P54760). Particulars: 0.1 uM.
Description: Inhibition of human EphB4 at 0.1 uM
Assay [41] addresses Cytoplasmic tyrosine-protein kinase BMX (Homo sapiens) (UniProt P51813). Particulars: 0.1 uM.
Description: Inhibition of human Bmx at 0.1 uM

Active and inactive are the calls of the source. The rule behind the calls is not given here. Where only a bound is given, the exact number is not on record here.

Consider `Cn1cnc(-c2cc3nccc(Oc4ccc(NC(CC(=O)Nc5ccc(F)cc5)C(F)(F)F)cc4)c3s2)c1` (configuration not stated), for which the 50% inhibitory concentration (IC50) in [1] came to 0.18 µM; in [2], 0.02 µM; in [3] it was 0.88 µM.

On to `O=C(CC(Nc1ccc(Oc2cc(NC(=O)N3CCCC3)ncn2)c(F)c1)C(F)(F)F)Nc1ccccc1` (configuration not stated), for which the IC50 is 0.006 µM in the assay on HUVEC [4]; above 5 µM in assay [1]; 0.04 µM in assay [2]; 0.04 µM in the assay on HUVEC [13]; 0.01 µM with HUVEC [14]. For the same molecule, the inhibition result in [5], in [6], in [9], in assay [10] and in assay [11] was “inactive” throughout. The inhibition at 0.1 µM in the assay on HUVEC [7] amounted to 95%; in the assay with HUVEC [8], 97%. Also, the inhibition result in [12] and in assay [15] was “Active” in each case.

Regarding `Cn1cnc(-c2cc3nccc(Oc4ccc(NC(=O)CC(Nc5ccccc5)C(F)(F)F)cc4F)c3s2)c1` (configuration not stated), the IC50 in [2] turned out to be 0.21 µM.

Turning to `COc1cc2ncnc(Oc3ccc(NC(=O)CC(Nc4ccccc4)C(F)(F)F)cc3F)c2cc1OC` (configuration not stated), the 50% inhibitory concentration (IC50) in assay [1] is above 5 µM; in assay [2], 0.86 µM.

Turning to `Cn1cnc(-c2cc3nccc(Oc4ccc(NC(CC(=O)Nc5ccc(F)cc5)C(F)(F)F)cc4F)c3s2)c1` (configuration not stated), the concentration for half-maximal inhibition (IC50) in assay [1] came out at 0.09 µM; in assay [2], 0.02 µM; in assay [3] it was 0.37 µM.

`CN(C(=O)CC(=O)Nc1ccc(Oc2ccnc3cc(-c4cn(C)cn4)sc23)c(F)c1)c1ccccc1`: the 50% inhibitory concentration (IC50) in [1] came out at 0.04 µM.

With `COc1ccccc1NC(=O)CC(Nc1ccc(Oc2ccnc3cc(-c4cn(C)cn4)sc23)c(F)c1)C(F)(F)F` (configuration not stated), the inhibition was below 50% in [16]; below 50% in [17]; below 50% in [18]; below 50% in assay [19]; below 50% in assay [20]; above 95% in assay [21]. Besides, the inhibition in [22] was 50%; in assay [23], below 50%; in assay [24], below 50%; in [25], below 50%; in assay [26], below 50%; in [27], below 50%. Moreover, the inhibition in assay [28] was below 50%; in assay [29], 50%; in [30], below 50%; in [31], 50%; in [32], below 50%; in [33] it was below 50%. For the same molecule, the inhibition in [34] was below 50%; in [35] it was below 50%; in [36], above 95%; in assay [37], 50%; in [38], 50%; in assay [39], below 50%. Moreover, the inhibition in assay [40] and in [41] was below 50% in each case. Besides, the results for the half-inhibitory concentration (IC50) in [1], in [2] and in assay [3] were 0.84 µM, 0.02 µM and 1.8 µM, respectively.

In the case of `COc1cc2nccc(Oc3ccc(NC(=O)CC(Nc4ccccc4)C(F)(F)F)cc3F)c2cc1OC` (configuration not stated), the half-maximal inhibitory concentration (IC50) in assay [1] was found to be 0.68 µM; in assay [2], 0.36 µM.

As to `O=C(CC(Nc1ccc(F)cc1)C(F)(F)F)Nc1ccc(Oc2cc(NC(=O)N3CCCC3)ncn2)c(F)c1` (configuration not stated), the figures for the IC50 in assay [1] and in [2] were above 5 µM and 1.2 µM, respectively.

Regarding `Cn1cnc(-c2cc3nccc(Oc4ccc(NC(CC(=O)Nc5ccccc5)C(F)(F)F)cc4F)c3s2)c1` (configuration not stated), in assay [2], the IC50 amounted to 0.01 µM.

For the molecule `Cn1cnc(-c2cc3nccc(Oc4ccc(NC(=O)CC(=O)Nc5ccccc5)cc4F)c3s2)c1`, the IC50 in [1] was found to be 0.03 µM; in assay [2] it was 0.02 µM.

Regarding `COc1cc2nccc(Oc3ccc(NC(CC(=O)Nc4ccccc4)C(F)(F)F)cc3F)c2cc1OC` (configuration not stated), the concentration for half-maximal inhibition (IC50) in assay [1] was 0.91 µM; in [2] it was 0.03 µM.
